# Data: PMC10794144, “A novel antibiotic class targeting the lipopolysaccharide transporter” (Nature, 2024)
# Read-outs that look alike come from different tables or passages of the source.
# Test system: A. baumannii
# Experiment: microbe, parasite or virus in culture
# Details: Acinetobacter baumannii, 100%
# How it was run: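 Standard broth microdilution per CLSI; diluted 0.5 McFarland inocula in cation-adjusted Mueller-Hinton broth; visual or OD600 endpoint.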
structure (smiles),measurement,setting,value
"C[C@@H](O)[C@H]1C(=O)N2C(C(=O)O)=C(S[C@@H]3CN[C@H](C(=O)N(C)C)C3)[C@H](C)[C@H]12 [meropenem, reference compound]",MIC,"read-out: MIC 100%, ROB08705, Study LGC295147",32 µg/mL
same,MIC,"read-out: MIC 100%, ROB08705, Study LGC296813",32 µg/mL
same,MIC,"read-out: MIC 100%, ROB08705, Study LGC299544",32 µg/mL
same,MIC,"read-out: MIC 100%, ROB08705, Study LGC301026",64 µg/mL
same,MIC,"read-out: MIC 100%, ROB08705, Study LGC308175",32 µg/mL
same,MIC,"read-out: MIC 100%, ROB08705, Study ROC003",32 µg/mL
same,MIC,"read-out: MIC 100%, ROB08705, Study ROC004",64 µg/mL
same,MIC,"read-out: MIC 100%, ROB08705, Study ROC005",64 µg/mL
same,MIC,"read-out: MIC 100%, ROB08705, Study ROC006",64 µg/mL
same,MIC,"read-out: MIC 100%, ROB08705, Study ROC007",32 µg/mL
same,MIC,"read-out: MIC 100%, ROB08705, Study ROC008",> 64 µg/mL
same,MIC,"read-out: MIC 100%, ROB08705, Study ROC009",32 µg/mL
same,MIC,"read-out: MIC 100%, ROB08705, Study ROC010",64 µg/mL
same,MIC,"read-out: MIC 100%, ROB08705, Study ROC012",32 µg/mL
same,MIC,"read-out: MIC 100%, ROB08705, Study ROC013",32 µg/mL
same,MIC,"read-out: MIC 100%, ROB08706, Study LGC277937",64 µg/mL
same,MIC,"read-out: MIC 100%, ROB08706, Study LGC279800",> 64 µg/mL
same,MIC,"read-out: MIC 100%, ROB08706, Study LGC281440",32 µg/mL
same,MIC,"read-out: MIC 100%, ROB08706, Study LGC282160",64 µg/mL
same,MIC,"read-out: MIC 100%, ROB08706, Study LGC282623",64 µg/mL
same,MIC,"read-out: MIC 100%, ROB08706, Study LGC283932",64 µg/mL
same,MIC,"read-out: MIC 100%, ROB08706, Study LGC284200",32 µg/mL
same,MIC,"read-out: MIC 100%, ROB08706, Study LGC284879",64 µg/mL
same,MIC,"read-out: MIC 100%, ROB08706, Study LGC285582",64 µg/mL
same,MIC,"read-out: MIC 100%, ROB08706, Study LGC286210",64 µg/mL
same,MIC,"read-out: MIC 100%, ROB08706, Study LGC293598",64 µg/mL
same,MIC,"read-out: MIC 100%, ROB08706, Study LGC294355",64 µg/mL
same,MIC,"read-out: MIC 100%, ROB08706, Study LGC295147",64 µg/mL
same,MIC,"read-out: MIC 100%, ROB08706, Study LGC296813",64 µg/mL
same,MIC,"read-out: MIC 100%, ROB08706, Study LGC299544",64 µg/mL
same,MIC,"read-out: MIC 100%, ROB08706, Study LGC301026",64 µg/mL
same,MIC,"read-out: MIC 100%, ROB08706, Study LGC308175",64 µg/mL
same,MIC,"read-out: MIC 100%, ROB08706, Study ROC004",64 µg/mL
same,MIC,"read-out: MIC 100%, ROB08706, Study ROC005",64 µg/mL
same,MIC,"read-out: MIC 100%, ROB08706, Study ROC006",> 64 µg/mL
same,MIC,"read-out: MIC 100%, ROB08706, Study ROC007",64 µg/mL
same,MIC,"read-out: MIC 100%, ROB08706, Study ROC008",64 µg/mL
same,MIC,"read-out: MIC 100%, ROB08706, Study ROC009",64 µg/mL
same,MIC,"read-out: MIC 100%, ROB08706, Study ROC010",32 µg/mL
same,MIC,"read-out: MIC 100%, ROB08706, Study ROC012",64 µg/mL
same,MIC,"read-out: MIC 100%, ROB08706, Study ROC013",64 µg/mL
same,MIC,"read-out: MIC 100%, ROB08707, Study LGC277937",32 µg/mL
same,MIC,"read-out: MIC 100%, ROB08707, Study LGC279800",32 µg/mL
same,MIC,"read-out: MIC 100%, ROB08707, Study LGC281440",32 µg/mL
same,MIC,"read-out: MIC 100%, ROB08707, Study LGC282160",32 µg/mL
same,MIC,"read-out: MIC 100%, ROB08707, Study LGC282623",64 µg/mL
same,MIC,"read-out: MIC 100%, ROB08707, Study LGC283932",64 µg/mL
same,MIC,"read-out: MIC 100%, ROB08707, Study LGC284200",32 µg/mL
same,MIC,"read-out: MIC 100%, ROB08707, Study LGC284879",64 µg/mL
same,MIC,"read-out: MIC 100%, ROB08707, Study LGC285582",32 µg/mL
same,MIC,"read-out: MIC 100%, ROB08707, Study LGC286210",32 µg/mL
same,MIC,"read-out: MIC 100%, ROB08707, Study LGC293598",32 µg/mL
same,MIC,"read-out: MIC 100%, ROB08707, Study LGC294355",32 µg/mL
same,MIC,"read-out: MIC 100%, ROB08707, Study LGC295147",64 µg/mL
same,MIC,"read-out: MIC 100%, ROB08707, Study LGC296813",32 µg/mL
same,MIC,"read-out: MIC 100%, ROB08707, Study LGC299544",64 µg/mL
same,MIC,"read-out: MIC 100%, ROB08707, Study LGC301026",32 µg/mL
same,MIC,"read-out: MIC 100%, ROB08707, Study LGC308175",32 µg/mL
same,MIC,"read-out: MIC 100%, ROB08707, Study ROC004",32 µg/mL
same,MIC,"read-out: MIC 100%, ROB08707, Study ROC005",32 µg/mL
same,MIC,"read-out: MIC 100%, ROB08707, Study ROC006",64 µg/mL
same,MIC,"read-out: MIC 100%, ROB08707, Study ROC007",64 µg/mL
same,MIC,"read-out: MIC 100%, ROB08707, Study ROC008",32 µg/mL
same,MIC,"read-out: MIC 100%, ROB08707, Study ROC009",32 µg/mL
same,MIC,"read-out: MIC 100%, ROB08707, Study ROC010",32 µg/mL
same,MIC,"read-out: MIC 100%, ROB08707, Study ROC012",32 µg/mL
same,MIC,"read-out: MIC 100%, ROB08707, Study ROC013",32 µg/mL
same,MIC,"read-out: MIC 100%, ROB08708, Study LGC277937",> 64 µg/mL
same,MIC,"read-out: MIC 100%, ROB08708, Study LGC279800",32 µg/mL
same,MIC,"read-out: MIC 100%, ROB08708, Study LGC281440",16 µg/mL
same,MIC,"read-out: MIC 100%, ROB08708, Study LGC282160",16 µg/mL
same,MIC,"read-out: MIC 100%, ROB08708, Study LGC282623",32 µg/mL
same,MIC,"read-out: MIC 100%, ROB08708, Study LGC283932",32 µg/mL
same,MIC,"read-out: MIC 100%, ROB08708, Study LGC284200",32 µg/mL
same,MIC,"read-out: MIC 100%, ROB08708, Study LGC284879",32 µg/mL
same,MIC,"read-out: MIC 100%, ROB08708, Study LGC285582",32 µg/mL
same,MIC,"read-out: MIC 100%, ROB08708, Study LGC286210",16 µg/mL
same,MIC,"read-out: MIC 100%, ROB08708, Study LGC293598",16 µg/mL
same,MIC,"read-out: MIC 100%, ROB08708, Study LGC294355",16 µg/mL
same,MIC,"read-out: MIC 100%, ROB08708, Study LGC295147",32 µg/mL
same,MIC,"read-out: MIC 100%, ROB08708, Study LGC296813",32 µg/mL
same,MIC,"read-out: MIC 100%, ROB08708, Study LGC299544",32 µg/mL
same,MIC,"read-out: MIC 100%, ROB08708, Study LGC301026",32 µg/mL
same,MIC,"read-out: MIC 100%, ROB08708, Study LGC308175",64 µg/mL
same,MIC,"read-out: MIC 100%, ROB08708, Study ROC004",32 µg/mL
same,MIC,"read-out: MIC 100%, ROB08708, Study ROC005",16 µg/mL
